Experimental data from ChEMBL document CHEMBL5385961, “In vitro and in vivo evaluation of novel chromeno[2,3-d]pyrimidinones as therapeutic agents for triple negative breast cancer” (RSC Med Chem, 2024).
Active and inactive are the calls of the source. The calls are words filed in the database; no cut-off is given here.

What was measured:
[1] = test system: Hs-578T; assay: Cytotoxicity against human Hs-578T cells assessed as inhibition of cell growth incubated for 72 hrs by SRB assay; assay type: functional, cell-based
[2] = species: Homo sapiens; assay: Selectivity index, ratio of IC50 for human MCF-10A cells to IC50 for human Hs-578T cells
[3] = Cytotoxicity against human MCF-10A cells assessed as inhibition of cell growth incubated for 72 hrs by SRB assay; assay type: toxicity, cell-based
[4] = test system: Hs-578T; assay: Cytotoxicity against human Hs-578T cells assessed as reduction in cell viability at 10 uM incubated for 72 hrs by SRB assay relative to control; assay type: functional
[5] = test system: MCF7; assay: Cytotoxicity against human MCF7 cells assessed as cell viability at 30 uM incubated for 72 hrs by SRB assay relative to control; assay type: functional; settings: read-out: Activity
[6] = test system: Hs-578T; assay: Induction of apoptosis in human Hs-578T cells assessed as increase in BAD protein expression at IC50 measured after 24 to 48 hrs by Western blot analysis; assay type: functional, cell-based; settings: time 24-48 hrs
[7] = test system: Hs-578T; assay: Induction of apoptosis in human Hs-578T cells assessed as increase in caspase-9 protein expression at IC50 measured after 24 to 48 hrs by Western blot analysis; assay type: functional, cell-based; settings: time 24-48 hrs
[8] = test system: Hs-578T; assay: Induction of apoptosis in human Hs-578T cells assessed as increase in caspase-8 protein expression at IC50 measured after 48 hrs by Western blot analysis; assay type: functional, cell-based
[9] = test system: Hs-578T; assay: Induction of apoptosis in human Hs-578T cells assessed as increase in BID protein expression at IC50 measured after 24 to 48 hrs by Western blot analysis; assay type: functional, cell-based; settings: time 24-48 hrs
[10] = test system: Hs-578T; assay: Induction of apoptosis in human Hs-578T cells assessed as increase in caspase-8 protein expression at IC50 measured after 24 hrs by Western blot analysis; assay type: functional, cell-based
[11] = test system: MCF7; assay: Cytotoxicity against human MCF7 cells assessed as cell viability at 10 uM incubated for 72 hrs by SRB assay relative to control; assay type: functional; settings: read-out: Activity
[12] = test system: MDA-MB-231; assay: Cytotoxicity against human MDA-MB-231 cells assessed as cell viability at 10 uM incubated for 72 hrs by SRB assay relative to control; assay type: functional; settings: read-out: Activity
[13] = test system: Hs-578T; assay: Cytotoxicity against human Hs-578T cells assessed as cell viability at 30 uM incubated for 72 hrs by SRB assay relative to control; assay type: functional; settings: read-out: Activity
[14] = test system: MDA-MB-231; assay: Cytotoxicity against human MDA-MB-231 cells assessed as cell viability at 30 uM incubated for 72 hrs by SRB assay relative to control; assay type: functional; settings: read-out: Activity
[15] = test system: Hs-578T; assay: Cytotoxicity against human Hs-578T cells assessed as cell viability at 10 uM incubated for 72 hrs by SRB assay relative to control; assay type: functional; settings: read-out: Activity
[16] = test system: Hs-578T; assay: Induction of apoptosis in human Hs-578T cells assessed as increase in cleaved PARP level at IC50 measured after 48 hrs by Western blot analysis; assay type: functional, cell-based

| SMILES | IC50 [1] [µM] | Ratio IC50 [2] | IC50 at 72 h [3] [µM] | Activity [4] [%] | viability at 30 µM [5] [%] | Activity [6] | Activity [7] | Activity [8] | Activity [9] | Activity [10] | viability at 10 µM [11] [%] | viability at 10 µM [12] [%] | viability at 30 µM [13] [%] | viability at 30 µM [14] [%] | viability at 10 µM [15] [%] | Activity [16] |
| --- | --- | --- | --- | --- | --- | --- | --- | --- | --- | --- | --- | --- | --- | --- | --- | --- |
| O=c1c(O)c(-c2ccc(O)c(O)c2)oc2cc(O)cc(O)c12 [QUERCETIN] | 50.5 | 0.82 | 9.32 |  |  |  |  |  |  |  |  |  |  |  |  |  |
| COc1cccc(-c2nc3c(c(=O)[nH]2)Cc2cc(Cl)ccc2O3)c1 | 13.1 | 0.06 | 14 | ~50 | 35.4 | Active | Active | inactive | Active | Active | 81.5 | 85.1 | 33.9 | 18.4 | 54.7 |  |
| COc1cccc2c1Oc1nc(-c3cc(C(C)(C)C)c(O)c(C(C)(C)C)c3)[nH]c(=O)c1C2 | 9.08 | > 5.61 | > 60 | ~50 | 43.5 | Active | Active | inactive | Active | Active | 59.8 | 68.1 | 18.7 | 58.6 | 30 | Active |
| COc1ccc2c(c1)C=C1C(=O)NC(c3c(OC)cc(OC)cc3OC)N=C1O2 (stereo unspecified) |  |  |  |  | 100 |  |  |  |  |  | 101 | 86.3 | 65.5 | 78.5 | 97 |  |
| COc1cccc(-c2nc3c(c(=O)[nH]2)Cc2cccc(OC)c2O3)c1 |  |  |  |  | 71.3 |  |  |  |  |  | 93.6 | 70.5 | 85.3 | 51.6 | 99.3 |  |
